Patent US20180057505A1, “BICYCLIC HETEROARYL COMPOUNDS USEFUL AS INHIBITORS OF THE PAR-2 SIGNALING PATHWAY” (VERTEX PHARMACEUTICALS INCORPORATED, priority 2015, published 2018)

Key:
Assay type in all cases: cell-based
[1] = biological target: T1, PAR2 (HT-29 cells) (Homo sapiens, UniProt P55085); assay: Ca FLIPR TETRA assay, ANTAGONIST mode, activator 8 μM SLIGKV; details: HT-29 cells, activator 8 μM SLIGKV
T1 construct: host or cells: HT-29
T1 sequence (P55085 26-397): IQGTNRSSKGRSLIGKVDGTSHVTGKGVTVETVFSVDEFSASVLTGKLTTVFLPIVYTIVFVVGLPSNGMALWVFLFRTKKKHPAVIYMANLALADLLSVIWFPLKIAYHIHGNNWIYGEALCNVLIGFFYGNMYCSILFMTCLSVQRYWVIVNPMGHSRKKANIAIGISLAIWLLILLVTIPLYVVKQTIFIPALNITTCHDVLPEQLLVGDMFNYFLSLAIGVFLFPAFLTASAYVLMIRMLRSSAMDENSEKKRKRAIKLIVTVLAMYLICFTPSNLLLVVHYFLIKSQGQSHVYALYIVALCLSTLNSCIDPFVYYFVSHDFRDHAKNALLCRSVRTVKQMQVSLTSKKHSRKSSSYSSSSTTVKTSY
Summary of the method: (§1)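 Antagonist mode, HT-29: cells O/N 37 °C, 1% FBS; calcium 5 dye 45 min 37 °C + 15 min RT; cpd (DMSO, HBSS-diluted) 30 min RT; activator at final conc. (8 μM SLIGKV / 1 U/mL thrombin / 3.1 U/mL trypsin / 0.6 μM UTP); FLIPR Tetra Ca2+ read.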

[2] = biological target: T1, PAR2 (HT-29 cells); assay: Ca FLIPR TETRA assay, ANTAGONIST mode, activator 3.1 U/mL trypsin; details: HT-29 cells, activator 3.1 U/mL trypsin
Summary of the method: as §1

[3] = test system: Thrombin-stimulated Ca2+ response in HT-29 cells; assay: Ca FLIPR TETRA assay, ANTAGONIST mode, activator 1 U/mL Thrombin; details: HT-29 cells, activator 1 U/mL Thrombin
Summary of the method: as §1

[4] = test system: UTP-stimulated Ca2+ response in HT-29 cells; assay: Ca FLIPR TETRA assay, ANTAGONIST mode, activator 0.6 μM UTP; details: HT-29 cells, activator 0.6 μM UTP
Summary of the method: as §1

[5] = maximal antagonist concentration per Method (A: 0.1, 1 or 2 μM; B: 50 μM)
[6] = Method A: maximal concentration of antagonist 0.1, 1 or 2 μM

## CC(C)(C)c1cc(C2CC3(CCC3)C2)nc2cc(C(=O)N3CCN(C(=O)CCC(=O)O)CC3(C)C)oc12 [Example I-292]
[1]; [5]
  IC50: 3.5 nM
[2]; [5]
  IC50: 7.1 nM
[3]; Homo sapiens
  IC50: > 2000 nM
[4]; Homo sapiens
  IC50: > 2000 nM

## CCS(=O)(=O)NCC(=O)N1CCN(C(=O)c2cc3nc(C4CC5(CCC5)C4)cc(C(C)(C)C)c3o2)C(C)(C)C1 [Example I-293]
[1]; [5]
  IC50: 5.4 nM
[2]; [5]
  IC50: 6.7 nM
[3]; Homo sapiens
  IC50: > 2000 nM
[4]; Homo sapiens
  IC50: > 2000 nM

## Cc1cc(C(=O)N2CCN(C(=O)c3cc4nc(C5CC6(CCC6)C5)cc(C(C)(C)C)c4o3)C(C)(C)C2)[nH]n1 [Example I-294]
[1]; [5]
  IC50: 1.5 nM
[2]; [5]
  IC50: 3.6 nM
[3]; Homo sapiens
  IC50: > 2000 nM
[4]; Homo sapiens
  IC50: > 2000 nM

## Cc1n[nH]c(C(=O)N2CCN(C(=O)c3cc4nc(C5CC6(CCC6)C5)cc(C(C)(C)C)c4o3)C(C)(C)C2)n1 [Example I-295]
[1]; [5]
  IC50: 7.3 nM
[2]; [5]
  IC50: 22 nM
[3]; Homo sapiens
  IC50: > 2000 nM
[4]; Homo sapiens
  IC50: > 2000 nM

## CC(C)(C)c1cc(C2CC3(CCC3)C2)nc2cc(C(=O)N3CCN(C(=O)[C@H]4C[C@@](C)(O)C4)CC3(C)C)oc12 [Example I-296]
[1]; [5]
  IC50: 0.7 nM
[2]; [5]
  IC50: 0.7 nM
[3]; Homo sapiens
  IC50: > 2000 nM
[4]; Homo sapiens
  IC50: > 2000 nM

## CC(C)(C)c1cc(C2CC3(CCC3)C2)nc2cc(C(=O)N3CCN(C(=O)[C@H]4CC[C@@](C)(C(=O)O)CC4)CC3(C)C)oc12 [Example I-297]
[1]; [5]
  IC50: 0.2 nM
[2]; [5]
  IC50: 0.2 nM
[3]; Homo sapiens
  IC50: 1400 nM
[4]; Homo sapiens
  IC50: 1200 nM

## CC(C)(C)c1cc(C2CC3(CCC3)C2)nc2cc(C(=O)N3CCN(C(=O)[C@H]4CC[C@](C)(C(=O)O)CC4)CC3(C)C)oc12 [Example I-298]
[1]; [6]
  IC50: 14 nM
[2]; [6]
  IC50: 18 nM
[3]; Homo sapiens
  IC50: 510 nM
[4]; Homo sapiens
  IC50: 510 nM

## CC(C)(C)c1cc(-c2ccc(Cl)c(F)c2)nc2cc(C(=O)N3CCC(CC(=O)O)CC3(C)C)oc12 (centres unmarked) [Example I-299]
[1]; [6]
  IC50: 0.2 nM
[2]; [6]
  IC50: 0.2 nM
[3]; Homo sapiens
  IC50: > 2000 nM
[4]; Homo sapiens
  IC50: 1700 nM

## CC1(C)CN(C(=O)[C@H]2C[C@@](C)(O)C2)CCN1C(=O)c1cc2nc(-c3ccc(Cl)c(F)c3)cc(C3(C#N)CC(F)(F)C3)c2o1 [Example I-300]
[1]; [6]
  IC50: 1.6 nM
[2]; [6]
  IC50: 1.6 nM
[3]; Homo sapiens
  IC50: > 2000 nM
[4]; Homo sapiens
  IC50: > 2000 nM

## CCC(CC)c1cc(-c2ccc(F)cc2)nc2cc(C(=O)N3CCN(c4cn[nH]c4)C(=O)C3(C)C)oc12 [Example I-301]
[1]; [6]
  IC50: 3 nM
[2]; [6]
  IC50: 4 nM
[3]; Homo sapiens
  IC50: > 2000 nM
[4]; Homo sapiens
  IC50: > 2000 nM

## CCC(CC)c1cc(-c2ccc(F)cc2)nc2cc(C(=O)N3CCN(C#N)C(=O)C3(C)C)oc12 [Example I-302]
[1]; [6]
  IC50: 14 nM
[2]; [6]
  IC50: 19.5 nM
[3]; Homo sapiens
  IC50: > 2000 nM
[4]; Homo sapiens
  IC50: > 2000 nM

## CC(C)(C)c1cc(C2CCC(Cl)(Cl)CC2)nc2cc(C(=O)N3CCN(C(=O)[C@H]4CC[C@@](C)(C(=O)O)CC4)CC3(C)C)oc12 [Example I-303]
[1]; [6]
  IC50: 0.4 nM
[2]; [6]
  IC50: 0.6 nM
[3]; Homo sapiens
  IC50: 1300 nM
[4]; Homo sapiens
  IC50: 1800 nM

## Cc1n[nH]c(C(=O)N2CCN(C(=O)c3cc4nc(C5CCC(Cl)(Cl)CC5)cc(C(C)(C)C)c4o3)C(C)(C)C2)n1 [Example I-304]
[1]; [6]
  IC50: 2 nM
[2]; [6]
  IC50: 2.8 nM
[3]; Homo sapiens
  IC50: > 2000 nM
[4]; Homo sapiens
  IC50: > 2000 nM

## CC(C)(C)c1cc(C2CCC(Cl)(Cl)CC2)nc2cc(C(=O)N3CCN(C(=O)[C@H]4C[C@@](C)(O)C4)CC3(C)C)oc12 [Example I-305]
[1]; [6]
  IC50: 1.5 nM
[2]; [6]
  IC50: 3 nM
[3]; Homo sapiens
  IC50: > 2000 nM
[4]; Homo sapiens
  IC50: > 2000 nM

## CC1(C)CCC(c2cc(C(C)(C)C)c3oc(C(=O)N4CCN(C(=O)[C@H]5CC[C@](C)(C(=O)O)CC5)CC4(C)C)cc3n2)CC1 [Example I-306]
[1]; [6]
  IC50: 4.7 nM
[2]; [6]
  IC50: 17 nM
[3]; Homo sapiens
  IC50: 1400 nM
[4]; Homo sapiens
  IC50: 1800 nM

## [2H]C([2H])([2H])N1CCN(C(=O)c2cc3nc(C4CCC(F)(F)CC4)cc(C(C)(C)C)c3o2)C(C)(C)C1=O [Example I-307]
[1]; [6]
  IC50: 124 nM
[2]; [6]
  IC50: 210 nM
[3]; Homo sapiens
  IC50: > 2000 nM
[4]; Homo sapiens
  IC50: > 2000 nM

## CC(C)(C)c1cc(-c2ccc(F)cc2)nc2cc(C(=O)N3CCN(C(C)(C)C)C(=O)C3(C)C)oc12 [Example I-308]
[1]; [6]
  IC50: 14 nM
[2]; [6]
  IC50: 37 nM
[3]; Homo sapiens
  IC50: > 2000 nM
[4]; Homo sapiens
  IC50: > 2000 nM

## Cc1cc(N2CCN(C(=O)c3cc4nc(C5CCC(C)(C)CC5)cc(C(C)(C)C)c4o3)C(C)(C)C2=O)n[nH]1 [Example I-309]
[1]; [6]
  IC50: 32 nM
[2]; [6]
  IC50: 40 nM
[3]; Homo sapiens
  IC50: > 2000 nM
[4]; Homo sapiens
  IC50: > 2000 nM

## CC(C)(C)c1cc(C2CCC(F)(F)CC2)nc2cc(C(=O)N3CCN(c4cn[nH]c4)C(=O)C3(C)C)oc12 [Example I-310]
[1]; [6]
  IC50: 61 nM
[2]; [6]
  IC50: 110 nM
[3]; Homo sapiens
  IC50: > 2000 nM
[4]; Homo sapiens
  IC50: > 2000 nM

## CC(C)(C)c1cc(C2CCC(F)(F)CC2)nc2cc(C(=O)N3CCN(C(=O)c4nnc[nH]4)CC3(C)C)oc12 [Example I-311]
[1]; [6]
  IC50: 81 nM
[2]; [6]
  IC50: 83 nM
[3]
  IC50: > 2000 nM
[4]
  IC50: > 2000 nM

## CN1CCN(C(=O)c2cc3nc(C4CCC(F)(F)CC4)cc(C(C)(C)C)c3o2)C(C)(C)C1=O [Example I-312]
[1]; [6]
  IC50: 170 nM
[2]; [6]
  IC50: 260 nM
[3]; Homo sapiens
  IC50: > 2000 nM
[4]; Homo sapiens
  IC50: > 2000 nM

## Cc1c[nH]nc1N1CCN(C(=O)c2cc3nc(C4CCC(C)(C)CC4)cc(C(C)(C)C)c3o2)C(C)(C)C1=O [Example I-313]
[1]; [6]
  IC50: 75 nM
[2]; [6]
  IC50: 310 nM
[3]; Homo sapiens
  IC50: > 2000 nM
[4]; Homo sapiens
  IC50: > 2000 nM

## CC(C)(C)c1cc(-c2ccc(F)cc2)nc2cc(C(=O)N3CCN(C(=O)[C@H]4C[C@@](C)(O)C4)C(C)(C)C3)oc12 [Example I-314]
[1]; [6]
  IC50: 190 nM
[2]; [6]
  IC50: 730 nM
[3]; Homo sapiens
  IC50: > 2000 nM
[4]; Homo sapiens
  IC50: > 2000 nM

## CC1(C)CCC(c2cc(C(C)(C)C)c3oc(C(=O)N4CCN(c5cn[nH]c5)C(=O)C4(C)C)cc3n2)CC1 [Example I-315]
[1]; [6]
  IC50: 5.7 nM
[2]; [6]
  IC50: 12 nM
[3]; Homo sapiens
  IC50: > 2000 nM
[4]; Homo sapiens
  IC50: > 2000 nM

## CN1CCN(C(=O)c2cc3nc(C4CCC(C)(C)CC4)cc(C(C)(C)C)c3o2)C(C)(C)C1=O [Example I-317]
[1]; [6]
  IC50: 8.2 nM
[2]; [6]
  IC50: 10 nM
[3]; Homo sapiens
  IC50: > 2000 nM
[4]; Homo sapiens
  IC50: > 2000 nM

## Cn1cnnc1N1CCN(C(=O)c2cc3nc(-c4ccc(Cl)c(F)c4)cc(C(C)(C)C)c3o2)C(C)(C)C1 [Example I-318]
[1]; [6]
  IC50: 2.8 nM
[2]; [6]
  IC50: 4.6 nM
[3]; Homo sapiens
  IC50: > 2000 nM
[4]; Homo sapiens
  IC50: > 2000 nM

## CC(C)[C@@H](CC(=O)N1CCN(C(=O)c2cc3nc(C4CCC(C)(C)CC4)cc(C(C)(C)C)c3o2)C(C)(C)C1)C(=O)O [Example I-319]
[1]; [6]
  IC50: 0.2 nM
[2]; [6]
  IC50: 0.2 nM
[3]; Homo sapiens
  IC50: > 2000 nM
[4]; Homo sapiens
  IC50: > 2000 nM

## CC(C)[C@@H](CC(=O)N1CCN(C(=O)c2cc3nc(-c4ccc(Cl)cc4)cc(C(C)(C)C)c3o2)C(C)(C)C1)C(=O)O [Example I-320]
[1]; [6]
  IC50: 0.1 nM
[2]; [6]
  IC50: 0.2 nM
[3]; Homo sapiens
  IC50: > 2000 nM
[4]; Homo sapiens
  IC50: > 2000 nM

## CC(C)[C@@H](CC(=O)N1CCN(C(=O)c2cc3nc(-c4ccc(Cl)c(F)c4)cc(C(C)(C)C)c3o2)C(C)(C)C1)C(=O)O [Example I-321]
[1]; [6]
  IC50: 0.1 nM
[2]; [6]
  IC50: 0.1 nM
[3]; Homo sapiens
  IC50: > 2000 nM
[4]; Homo sapiens
  IC50: > 2000 nM
